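Values below derive from 48-hour exposures of cells grown in 96-well plates, with endpoints linearly interpolated between the two concentrations bracketing the appropriate inhibition level. TGI denotes the concentration required for complete inhibition of growth.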 Where a SMILES comes first, the peptide text is derived from it. The star is where a group is joined. Cbz = O=C(OCc1ccccc1)*
Experiments:
Experiment in all cases: DTP human tumour cell line panel, 48 h
[1] = system: KM12 colon
[2] = system: MDA-N
[3] = system: OVCAR-8 ovarian
[4] = system: RXF 393 renal
[5] = system: SF-295 CNS
[6] = system: SK-MEL-2 melanoma
[7] = system: SK-MEL-28 melanoma
[8] = system: SW-620 colon
[9] = system: U251 CNS
[10] = system: SF-539 CNS

Compound | TGI [1] | TGI [2] | TGI [3] | TGI [4] | TGI [5] | TGI [6] | TGI [7] | TGI [8] | TGI [9] | TGI [10]
Cc1nc2cccc([N+](=O)[O-])c2n1CCCN(C)C | > 100 µM | > 100 µM | > 100 µM | > 100 µM | > 100 µM | > 100 µM | > 100 µM | > 100 µM | > 100 µM | 
N=C(N)SCc1ccc(N=C=S)cc1 | 27.6 µM | 26.6 µM | 31.6 µM | 17.8 µM | 31.2 µM | 23 µM | 28.7 µM | 29.1 µM | 29 µM | 27.3 µM
NC(N)=NS(=O)(=O)c1ccc(NC(=O)c2ccc3nc4ccccc4c(N)c3c2)cc1 | > 100 µM | > 100 µM | > 100 µM | > 100 µM | > 100 µM | > 100 µM | > 100 µM | > 100 µM | > 100 µM | > 100 µM
COc1ccc(-c2cc(-c3ccccc3)nc3c2CC(=O)Nc2ccccc2-3)cc1OC | > 100 µM | > 100 µM | 0.447 µM | > 46.3 µM | > 100 µM | > 100 µM | > 100 µM | > 100 µM | > 100 µM | > 46.1 µM
CC(C)(O)CCc1ccc(O)c2c(=O)c3c(O)c4c(cc3oc12)O[C@H]1OC=C[C@@]41O | 11.3 µM | 0.0142 µM | 0.273 µM | 1.44 µM | 25.3 µM | < 0.01 µM | 1.38 µM | 27.8 µM | 0.0396 µM | 6.76 µM
Cc1ccc(NC(=O)/C(=N\NC(N)=O)c2c(O)c3ccccc3[nH]c2=O)cc1 | > 100 µM | > 100 µM | > 100 µM | > 100 µM | > 100 µM | > 100 µM | > 100 µM | > 100 µM | > 100 µM | > 100 µM
Cc1nnc([C@@]2(C)CC[C@H]3[C@@H](CCC4=CC(=O)CC[C@@]43C)[C@@H]2CC#N)o1 | > 100 µM | > 100 µM | > 100 µM | > 100 µM | > 100 µM | > 100 µM |  | > 100 µM | > 100 µM | > 100 µM
CCOC(=O)CNC(=O)C(C)NC(=O)C(NC(=O)OCc1ccccc1)C(C)C (stereo not drawn) (Cbz-Val-Ala-Gly-OEt; configuration not given here) | > 100 µM | > 100 µM | > 100 µM | > 100 µM | > 100 µM | > 100 µM | > 100 µM | > 100 µM | > 100 µM | > 100 µM
CN(C)/C=C/c1c2c(nc3ccccc13)C(=O)c1ccccc1C2=O | 3.62 µM | 0.957 µM | 7.71 µM | 9.83 µM | 2.88 µM | 6.27 µM | 0.55 µM | 5.04 µM | 4.66 µM | 5.4 µM
O[C@H]1[C@H](O)[C@@H](Cn2nnc(-c3ccccc3)c2-c2ccccc2)OCO[C@@H]1Cn1nnc(-c2ccccc2)c1-c1ccccc1 | 11.6 µM | 9.97 µM | 18.1 µM | 9.41 µM | 13 µM | 9.41 µM | > 67.1 µM | 46.6 µM | > 41 µM | 10.8 µM
Nc1c2c(nc3ccccc13)CCCc1ccccc1-2 | 31.2 µM | 17.2 µM | 30.8 µM | 24.7 µM | 24 µM | 27.1 µM | 25 µM | 26.6 µM | 24.7 µM | 25.9 µM
C[N+](C)(C)C(C1=CCCC1=O)c1ccccc1 (stereo unspecified) | 49.1 µM | > 100 µM | 65.6 µM | 41.8 µM | > 100 µM | > 100 µM | > 100 µM | 70.4 µM | 42.7 µM | > 100 µM
Cc1ccc([N+](=O)[O-])cc1S(=O)(=O)Nc1ccc(C2=NN(S(=O)(=O)c3cc([N+](=O)[O-])ccc3C)C(c3ccco3)C2)cc1 (stereo unspecified) | > 100 µM | > 100 µM | > 100 µM | > 100 µM | > 100 µM | > 100 µM | > 100 µM | > 100 µM |  | > 100 µM
Cc1ccc(S(=O)(=O)N2CCCSCCN(S(=O)(=O)c3ccc(C)cc3)CCCSCC2)cc1 | > 100 µM | > 100 µM | > 100 µM | > 100 µM | > 100 µM | > 100 µM | > 100 µM | > 100 µM | > 100 µM | > 100 µM
O=P1(Oc2ccccc2)NCc2ncccc2O1 (stereo unspecified) | > 100 µM | > 100 µM | > 100 µM | > 100 µM | > 100 µM | > 100 µM | > 100 µM | > 100 µM | > 100 µM | > 100 µM
C=CCn1c(-c2ccc(Cl)cc2Cl)csc1=Nc1c(C)n(C)n(-c2ccccc2)c1=O | 29.3 µM | 22.4 µM | 21.7 µM | 32.1 µM | 21.2 µM | 29.2 µM | 26.7 µM | 32.8 µM | 25.1 µM | 30.4 µM

Compound | TGI [1] | TGI [2] | TGI [3] | TGI [4] | TGI [5] | TGI [6] | TGI [7] | TGI [8] | TGI [9] | TGI [10]
CCOC(=O)C1=C(C)NC(C)=C(C(=O)OCC)C1c1ccc(C)cc1 | > 100 µM | > 100 µM | > 100 µM | 75.5 µM | > 100 µM | 98.4 µM | > 100 µM | > 100 µM | > 100 µM | 91.4 µM
CC(=O)OCCOCCN1CCN(c2c(O)c3c(c(O)c2Cl)C(=O)C=CC3=O)CC1 | 4.92 µM | 1.79 µM | 2.66 µM | 1.93 µM | 3.72 µM | 3.26 µM | 2.22 µM | 0.475 µM | 4.1 µM | 3.37 µM
CCOP(C)(=O)/C(Cc1ccc(OC)c(OC)c1)=N\O (stereo unspecified) | > 100 µM | > 100 µM | > 100 µM | > 100 µM | > 100 µM | > 100 µM | > 100 µM | > 100 µM | > 100 µM | > 100 µM
CC(C)(SCc1ccccc1)C(N)C(=O)O (stereo unspecified) | > 100 µM | > 100 µM | > 100 µM | > 100 µM | > 100 µM | > 100 µM | > 100 µM | > 100 µM | > 100 µM | 
NC(=O)C1N=NSC1NC(=O)c1ccc([N+](=O)[O-])cc1 (stereo unspecified) | > 100 µM | > 100 µM | > 100 µM | > 100 µM | > 100 µM | 65 µM | > 100 µM | > 100 µM | > 100 µM | 
CS/C=C\C(=O)O[C@H]1C[C@@H]2[C@@H](O)c3occ(C)c3C[C@]2(C)[C@@H](C)C1 | > 100 µM | 47.2 µM | 50.4 µM | 47.2 µM | 77 µM |  | 35.9 µM | > 100 µM | 7.93 µM | 37.7 µM
NC(=S)N/N=C1\CCCCC1C(O)(C(F)(F)Cl)C(F)(F)Cl (stereo unspecified) | > 10 µM | > 10 µM | > 10 µM | > 10 µM | > 10 µM | > 10 µM | > 10 µM | > 10 µM | > 10 µM | > 10 µM
CC(=O)OC1OC(c2ccoc2)C[C@@]12C1CCC3O[C@]3(C)[C@]1(C)C[C@H](OC(C)=O)[C@H]2C (stereo partly specified) | > 75 µM | > 75 µM | > 75 µM | > 75 µM | > 75 µM | > 75 µM | > 75 µM | > 75 µM | > 75 µM | > 75 µM
COC(=O)C1=COc2c(n(C)c3ccccc23)-c2ccccc21 | > 100 µM | > 100 µM | > 100 µM | > 100 µM | > 100 µM | > 100 µM |  | > 100 µM | > 100 µM | > 100 µM
O=C1C2CC=CCC2C(=O)N1n1c(Cc2ccccc2)n[nH]c1=O (stereo unspecified) | > 100 µM | > 100 µM | > 100 µM | > 100 µM | > 100 µM | > 100 µM |  | > 100 µM | > 100 µM | > 100 µM
Nc1[nH]c(=S)c2c(N)n[nH]c2c1C(=O)Nc1ccc(Cl)cc1 | > 100 µM | > 100 µM | > 100 µM | > 100 µM |  | > 100 µM | > 100 µM | > 100 µM | > 100 µM | > 100 µM
NC(=O)CNC(=O)[C@@H]1C[C@@H](OCCC(=O)O)CN1C(=O)OCc1ccccc1 | > 100 µM | > 100 µM |  | > 100 µM | > 100 µM | > 100 µM | > 100 µM | > 100 µM | > 100 µM | 
O=C1CCCC[C@H]1C(O)CC1CC(=O)N(c2ccccc2)C(=O)C1 (stereo partly specified) | > 100 µM | > 100 µM | > 100 µM | > 100 µM | > 100 µM |  | > 100 µM | > 100 µM | > 100 µM | > 100 µM
O=c1c2c3c(sc2nc2n1N=C(c1ccc([N+](=O)[O-])cc1)CS2)CCCC3 | > 100 µM | > 100 µM | > 100 µM | > 100 µM | > 100 µM |  | > 100 µM | > 100 µM | > 100 µM | > 100 µM
O=C1Nc2ccccc2/C1=C\c1c(Cl)nc2n1CCS2 | > 100 µM | 43.6 µM | > 100 µM | 57.3 µM | 99.6 µM | 32.5 µM | > 100 µM | > 100 µM | 75.6 µM | 

From PubChem BioAssay (NCI)
